The test system of this assay is adults with moderate-to-severe chronic pain associated with osteoarthritis (OA) of the knee or hip. Nature of the assay: FACT OA1 (NCT03161093, R475-OA-1611) Phase 3 trial, WOMAC pain and physical function. Type of assay: in vivo, human. The settings on record: FACT OA1, Week 16; fasinumab 1 mg Q4W, naproxen 2 × 500 mg/day. The text has this: NCT02683239 (R475-PN-1523, or “FACT LTS”), NCT03161093 (R475-OA-1611, or “FACT OA1”), and NCT03304379 (R475-OA-1688, or “FACT OA2”) each were Phase 3 trials evaluating fasinumab in adults with moderate-to-severe chronic pain associated with osteoarthritis (OA) of the knee or hip. All three of these trials enrolled patients with OA of the knee or hip who had inadequate pain relief with acetaminophen and were intolerant to or had inadequate pain relief with opioids, or were unwilling or unable to take opioids. Complete inclusion and exclusion criteria for the trials are described at clinicaltrials.gov/ct2/show/NCT03161093, clinicaltrials.gov/ct2/show/NCT03304379, and clinicaltrials.gov/ct2/show/NCT02683239.
FACT OA1 and FACT OA2 assessed the efficacy of fasinumab in comparison to nonsteroidal anti-inflammatory drugs (NSAIDs; naproxen, diclofenac, or celecoxib) for treatment of OA. FACT OA1 includes results from a total of 1,801 patients randomized to one of four treatment arms: fasinumab 1 mg SC once every 8 weeks (Q8W) (n=304), fasinumab 1 mg SC once every 4 weeks (Q4W) (n=639), naproxen 500 mg twice daily (n=644), or placebo (n=214). In FACT OA2, patients were randomized into one of six treatment groups: fasinumab 1 mg SC once every 4 weeks (Q4W), fasinumab 3 mg SC once every 4 weeks (Q4W), fasinumab 6 mg SC once every 8 weeks (Q8W), celecoxib 200 mg once daily, diclofenac 75 mg twice daily, or placebo. While the FACT OA2 trial was still ongoing, enrollment into the fasinumab 3 mg Q4W and 6 mg Q8W groups was stopped for safety considerations; patients enrolled in those dose regimens discontinued study drug and entered the post-treatment follow-up period.
Fasinumab patients in both trials also reported improvements in their pain and physical function (WOMAC score) compared to those treated with the highest-approved prescription doses of NSAIDS.

Take `COc1ccc2cc([C@H](C)C(=O)O)ccc2c1` [Naproxen, naproxen, reference compound]: the “WOMAC pain, change from baseline” value is listed as −33%; the “WOMAC pain, change from baseline (score, in brackets)” value is given as “(−2.13)”; the “WOMAC physical function, change from baseline” value is −31%; the “WOMAC physical function, change from baseline (score, in brackets)” value is “(−1.98)”.

(Values after patent US20240002491A1, “METHODS FOR SELECTING PATIENTS FOR TREATMENT WITH AN NGF ANTAGONIST” (Regeneron Pharmaceuticals, Inc., priority 2022, published 2024).)
